Paper PMC5491650, “Structure-Activity Relationships of Pentacyclic Triterpenoids as Potent and Selective Inhibitors against Human Carboxylesterase 1” (Frontiers in Pharmacology, 2017)
Where two headings read alike, the source gives them in different places.

Assays:
hCE2 = target: T1, hCE2 (Homo sapiens, UniProt O00748); assay: hCE2 inhibition assay, DDAB hydrolysis in human liver microsomes; format: biochemical
T1 construct: tissue Celsis (Shanghai, China); host or cells: human liver microsomes (HLM)
T1 sequence (O00748 27-559): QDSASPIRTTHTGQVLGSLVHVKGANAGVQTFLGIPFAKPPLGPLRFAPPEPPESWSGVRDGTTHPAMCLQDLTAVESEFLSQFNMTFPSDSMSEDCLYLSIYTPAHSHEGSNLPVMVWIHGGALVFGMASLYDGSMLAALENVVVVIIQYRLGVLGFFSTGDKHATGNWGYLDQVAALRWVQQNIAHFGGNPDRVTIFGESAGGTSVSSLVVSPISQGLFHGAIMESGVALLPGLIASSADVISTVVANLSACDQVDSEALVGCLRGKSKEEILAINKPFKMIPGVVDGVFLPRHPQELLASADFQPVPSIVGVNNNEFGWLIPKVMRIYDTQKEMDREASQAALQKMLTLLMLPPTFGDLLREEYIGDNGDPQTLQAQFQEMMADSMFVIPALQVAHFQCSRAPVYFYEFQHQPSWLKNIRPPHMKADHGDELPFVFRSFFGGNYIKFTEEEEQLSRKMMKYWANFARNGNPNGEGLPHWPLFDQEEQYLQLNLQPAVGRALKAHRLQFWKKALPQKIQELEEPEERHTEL

hCE1 = target: T2, hCE1 (Homo sapiens, UniProt P23141); assay: hCE1 inhibition assay, DME hydrolysis in human liver microsomes; format: biochemical; set-up: tissue Celsis (Shanghai, China); host or cells: human liver microsomes (HLM);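 further: carboxylesterase inhibition read out as probe hydrolysis, with DME serving as hCE1 substrate and DDAB as hCE2 substrate, in DMSO below 2% (V/V)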
T2 sequence (P23141 18-567): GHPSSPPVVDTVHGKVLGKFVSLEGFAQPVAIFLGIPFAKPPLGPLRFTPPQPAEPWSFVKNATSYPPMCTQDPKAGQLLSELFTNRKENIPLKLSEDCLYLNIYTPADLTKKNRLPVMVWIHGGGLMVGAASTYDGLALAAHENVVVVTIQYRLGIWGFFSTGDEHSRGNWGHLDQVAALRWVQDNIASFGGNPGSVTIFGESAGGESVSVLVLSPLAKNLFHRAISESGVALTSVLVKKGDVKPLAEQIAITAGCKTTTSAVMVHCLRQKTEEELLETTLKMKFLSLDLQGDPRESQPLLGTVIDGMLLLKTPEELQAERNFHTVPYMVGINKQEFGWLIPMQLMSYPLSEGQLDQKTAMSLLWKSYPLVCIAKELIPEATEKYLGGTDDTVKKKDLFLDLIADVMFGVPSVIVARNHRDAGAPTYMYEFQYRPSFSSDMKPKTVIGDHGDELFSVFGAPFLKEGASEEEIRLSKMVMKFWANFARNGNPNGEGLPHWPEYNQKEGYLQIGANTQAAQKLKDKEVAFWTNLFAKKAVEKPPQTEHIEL

[1] = DDAB as probe substrate, HLM, averages of at least three experiments, read-out: IC50 (hCE2)
[2] = DME as probe substrate, HLM, averages of at least three experiments, read-out: IC50 (hCE1)
[3] = log of the experimental IC50 in μM, used for 3D-QSAR

IC50 (hCE2; [1]) | IC50 (hCE1; [2]) | Observed Log(IC50_hCE1) (hCE1; [3]) | Compound | also measured
11.9 µM | 33.2 µM | 1.521 μM | COC(=O)C12CCC(C)C(C)C1C1=CC(=O)C3C4(C)CCC(=O)C(C)(C)C4CCC3(C)C1(C)CC2 (stereo not drawn) [Compound 25, 3,11-dioxo-urs-12-en-28-oic acid methyl ester] | 
 | 124 µM | 2.092 μM | C[C@H]1[C@H](C)CC[C@]2(C)CC[C@]3(C)C(=CC(=O)[C@@H]4[C@@]5(C)CC[C@@H](O)[C@](C)(C(=O)O)[C@@H]5CC[C@]43C)[C@H]12 [Compound 6, 11-keto-β-boswellic acid] | 
> 100 µM | 0.9 µM | -0.04576 μM | COC(=O)C12CCC(C)C(C)C1C1=CCC3C4(C)CCC(=O)C(C)(C)C4CCC3(C)C1(C)CC2 (stereo not drawn) [Compound 24, 3-oxo-urs-12-en-28-oic acid methyl ester] | 
 | 13 µM | 1.1126 μM | CC1(C)[C@@H](O)CC[C@]2(C)[C@H]3C(=O)C=C4[C@@H]5C[C@@](C)(C(=O)O)CC[C@]5(C)CC[C@@]4(C)[C@]3(C)CC[C@@H]12 [Compound 4, glycyrrhetic acid] | 
 | > 400 µM |  | C[C@H]1[C@H](C)CC[C@]2(C)CC[C@]3(C)C(=CC[C@@H]4[C@@]5(C)CC[C@@H](O)[C@](C)(C(=O)O)[C@@H]5CC[C@]43C)[C@H]12 [Compound 5, β-boswellic acid] | 
 | 0.28 µM | -0.5528 μM | CC1(C)CC[C@]2(C(=O)O)CC[C@]3(C)C(=CC[C@@H]4[C@@]5(C)CC[C@H](O)C(C)(C)[C@@H]5CC[C@]43C)[C@@H]2C1 [Compound 1, oleanolic acid] | 
3.16 µM | 6.94 µM | 0.8414 μM | CC1(C(=O)O)CCC2(C)CCC3(C)C(=CCC4C5(C)CCC(OC(=O)CCC(=O)O)C(C)(C)C5CCC43C)C2C1 (stereo not drawn) [Compound 27, 3β-O-(β-carboxypropionyl)-olean-12-en-30-oic acid] | 
11.9 µM | 1.83 µM | 0.2625 μM | COC(=O)C12CCC(C)C(C)C1C1=CCC3C4(C)CCC(O)C(C)(C)C4CCC3(C)C1(C)CC2 (stereo not drawn) [Compound 23, 3β-hydroxy-urs-12-en-28-oic acid methyl ester] | 
5.7 µM | 6.23 µM | 0.7945 μM | COC(=O)C12CCC(C)(C)CC1C1=CCC3C4(C)CCC(O)C(C)(C)C4CCC3(C)C1(C)CC2 (stereo not drawn) [Compound 17, 3β-hydroxy-olean-12-en-28-oic acidmethyl ester] | 
 | 0.24 µM | -0.6198 μM | C[C@H]1[C@H](C)CC[C@]2(C(=O)O)CC[C@]3(C)C(=CC[C@@H]4[C@@]5(C)CC[C@H](O)C(C)(C)[C@@H]5CC[C@]43C)[C@H]12 [Compound 2, ursolic acid] | 
> 100 µM | 64.7 µM | 1.811 μM | CC1(C)CCC2(C(=O)O)C(O)CC3(C)C(=CCC4C5(C)CC(O)C(O)C(C)(CO)C5CCC43C)C2C1 (stereo not drawn) [Compound 3, polygalacic acid] | 
9.56 µM | 0.037 µM | -1.4318 μM | CC1CCC2(C(=O)O)CCC3(C)C(=CCC4C5(C)CCC(=O)C(C)(C)C5CCC43C)C2C1C (stereo not drawn) [Compound 21, 3-oxo-urs-12-en-28-oic acid] | 
56 µM | 0.017 µM | -1.77 μM | CC1(C)CCC2(C(=O)O)CCC3(C)C(=CCC4C5(C)CCC(OC(=O)CCC(=O)O)C(C)(C)C5CCC43C)C2C1 (stereo not drawn) [Compound 20, 3β-O-(β-carboxypropionyl)-olean-12-en-28-oic acid] | selectivity over hCE2 (hCE1; hCE1 versus hCE2, values of the text): 3296 fold
6.12 µM | 2.41 µM | 0.382 μM | CC1(C)CCC2(CO)CCC3(C)C(=CCC4C5(C)CCC(O)C(C)(C)C5CCC43C)C2C1 (stereo not drawn) [Compound 16, 3β-olean-12-ene-3,28-diol] | 
 |  |  | C[C@H](CC(=O)C[C@@H](C)[C@H]1C[C@H](O)[C@@]2(C)C3=C(C(=O)C[C@]12C)[C@@]1(C)CCC(=O)C(C)(C)[C@@H]1C[C@@H]3O)C(=O)O [Compound 13] | IC50 (hCE2): > 100 µM; IC50 (hCE1): > 400 µM
4.11 µM | 3.21 µM | 0.5065 μM | CC1(C)CCC2(C(N)=O)CCC3(C)C(=CCC4C5(C)CCC(O)C(C)(C)C5CCC43C)C2C1 (stereo not drawn) [Compound 18, 3β-hydroxy-olean-12-en-28-amide] | 

Compound | IC50 (hCE2; [1]) | IC50 (hCE1; [2]) | Observed Log(IC50_hCE1) (hCE1; [3]) | also measured
C[C@H](CC(=O)C[C@@H](C)[C@H]1CC(=O)[C@@]2(C)C3=C(C(=O)C[C@]12C)[C@@]1(C)CC[C@H](O)C(C)(C)[C@@H]1C[C@@H]3O)C(=O)O [Compound 14] | > 100 µM | > 400 µM |  | 
CC(=O)OC1CCC2(C)C(CCC3(C)C2CC=C2C4CC(C)(C)CCC4(C(=O)O)CCC23C)C1(C)C (stereo not drawn) [Compound 19, 3β-O-acetyl-olean-12-en-28-oic acid] | 10.2 µM | 0.19 µM | -0.7212 μM | 
CC1=C(O)C(=O)C=C2C1=CC=C1[C@@]2(C)CC[C@@]2(C)[C@@H]3C[C@](C)(C(=O)O)CC[C@]3(C)CC[C@]12C [Compound 7, celastrol] |  | 4.43 µM | 0.6464 μM | 
C=C(CCC(C(=O)O)C1C(O)CC2(C)C3=CCC4C(C)(CCC(OC(C)=O)C4(C)C)C3=CCC12C)C(C)C (stereo not drawn) [Compound 11] | > 100 µM | 27.6 µM | 1.441 μM | 
C=C(CCC(C(=O)O)C1C(O)CC2(C)C3=CCC4C(C)(C)C(=O)CCC4(C)C3=CCC12C)C(C)C (stereo not drawn) [Compound 12] | > 100 µM | 58.6 µM | 1.7679 μM | 
CC1(C(=O)O)CCC2(C)CCC3(C)C(=CCC4C5(C)CCC(O)C(C)(C)C5CCC43C)C2C1 (stereo not drawn) [Compound 26] |  |  | 0.9513 μM | IC50 (hCE1; IC50 (hCE1), DME as probe substrate, HLM, averages of at least three experiments): 8.94 µM
O=[N+]([O-])c1ccc(OP(=O)(O)Oc2ccc([N+](=O)[O-])cc2)cc1 [Compound 28, Bis-p-nitrophenyl phosphate, reference compound] |  | 0.031 µM |  | 
CC(C)=CCCC(C)(O)C1CCC2(C)C1C(O)CC1C3(C)CCC(O)C(C)(C)C3C(O)CC12C (stereo not drawn) [Compound 9] |  | > 500 µM |  | 
CC(C)=CCCC(C)(O)C1CCC2(C)C1C(O)CC1C3(C)CCC(O)C(C)(C)C3CCC12C (stereo not drawn) [Compound 8] |  | > 500 µM |  | 
C=C(CCC(C(=O)O)C1C(O)CC2(C)C3=C(CCC12C)C1(C)CCC(OC(C)=O)C(C)(C)C1CC3)C(C)C (stereo not drawn) [Compound 10] |  | 21.7 µM | 1.337 μM | 
CC1(C)CCC2(C(=O)O)CCC3(C)C(=CCC4C5(C)CCC(=O)C(C)(C)C5CCC43C)C2C1 (stereo not drawn) [Compound 15, 3-oxo-olean-12-en-28-oic acid] | 16.1 µM | 0.13 µM |  | Observed Log(IC50_hCE1) (hCE1): -0.8861 μM; Selectivity (hCE1): 123.07
